{"source": "patent US20240326697A1", "about": "“SOLID FORMS OF SELECTIVE ANDROGEN RECEPTOR MODULATORS” (priority 2007, published 2024)", "type_in_all_cases": "physicochemical", "key": {"[1]": {"assay": "Dynamic vapor sorption (DVS)", "conditions": "25° C.", "protocol": "Dynamic vapor sorption quantification relates the mass of water absorbed and subsequently desorbed during the crystallization process. In order to define whether batch P1, P2 and P4 are hydrated polymorphs, DVS measurements were conducted (FIG. 9). A sample (13 to 14 mg) was placed on a Pt pan, and the sample was allowed to equilibrate at 25° C./50% r.h. before starting a pre-defined humidity program (1.0 hours 50%, from 50% r.h. to 95% r.h.: 5% r.h./hour, 10 hours at 95% r.h., from 95% r.h. to 0% r.h.: 5% r.h./hour, 10 hours at 0% r.h., from 0% r.h. to 50% r.h.: 5% r.h./hour, 1 hours at 50% r.h."}, "[2]": {"assay": "Suspension equilibration experiments", "protocol": "Suspension equilibration experiments were carried out with 81-128 mg of the compound. The suspensions were stirred with a magnetic stirrer. The samples obtained after filtration were air dried at ambient temperature for a short time only to prevent possible desolvation of labile hydrates or solvates."}, "[3]": {"assay": "Measurement of the approximate solubility (solvent added in steps to the solid)", "conditions": "ethyl acetate/n-heptane 1:2 v/v, 23° C. (B′: solid form transformation into solid form A)", "protocol": "To determine the approximate solubility at room temperature, the solvent was added in steps to the solid material. After every addition, the sample was well stirred. The addition of solvent was continued until complete dissolution or until 15 ml of solvent was added."}, "[4]": {"assay": "Water solubility of solid forms A and B′ (suspension shaken, filtered, HPLC; residue by Raman)", "conditions": "22° C.; for Solid residue: Raman, rough estimate; for solubility: mean of two measurements (±standard deviation)", "protocol": "During the following experiments: suspension equilibration, precipitation experiment, recrystallization, relative stability experiments and water solubility experiment, a filtration step was conducted. Centrifugal filter devices: Ultrafree-CL (0.22 la,m), Millipore; Centrifuge type or Eppendorf 5804R were used at a temperature of 22° C. and centrifugation program of 2 min 3000 rpm.\nHPLC was used to analyse the purity of S-1. HP 1090M HPLC machine was used with the following conditions: • Column: Symmetry Shield RP18, 3.9×150 mm, 5 μm • Column temperature: 35° C. • Injection volume: 10 μL • Solvent: acetonitrile+water 1:1 v/v • Mobile phase A: 0.1% TFA-water • Mobile phase B: 0.1% TFA-acetonitrile • Flow rate: 1 mL/min. • Detection: UV at 271 nm • Run time: 21 min. • Retention time (S-1): 10.7 min.\nSuspensions of the solid forms (25 or 50 mg in 3.5 or 7.0 ml bidistilled water) were shaken (800 rpm) and filtered after 0.5 h, 1.5 h, 4 h and 20 h. After filtration the solid residue was checked by Raman spectroscopy and the concentration in the clear solution was determined by HPLC."}, "[5]": {"assay": "Relative stability of toluene solvate in toluene / solubility in toluene", "protocol": "Recrystallization of S-1 from a solvent/antisolvent system that uses toluene as the antisolvent produces the toluene solvate. Toluene solvate has a melting point near 100° C. with the enthalpy of melting 70±5 J/g."}, "[6]": {"assay": "Relative stability of polymorphic forms under dry conditions (heating, micronization)", "conditions": "heating to 110° C. in the presence of D", "protocol": "(§1) Thermal analysis was carried out with a Perkin Elmer DSC7 with the following experimental conditions: 3 to 6 mg sample mass, closed gold sample pan, temperature range −50° C. to 120° C., heating rate 20 K/min. The samples were weighed in air or dry N2 atmosphere. Additional thermal analysis was conducted using a TA Instruments Q1000 DSC using hermetic aluminum pans under various conditions.\nThus forms A and B″ can be considered to be practically stable at ambient temperature. […] Micronization of the polymorph A particles under dry conditions also produced ˜25% conversion to B″."}, "[7]": {"assay": "Relative stability of polymorphic forms under humid conditions (storage, DSC)", "conditions": "50° C./75% RH as well as ambient/75% RH, ambient/100% RH, 30° C./75% RH and 50° C./0% RH", "protocol": "as §1\nPolymorph A stays stable in its A form for at least 7 days under storage conditions of ambient temperature/75% RH (Relative Humidity), ambient temperature/100% RH, 30° C./75% RH and 50° C./0% RH.\nIn fact, polymorph D in the presence of moisture acts as the seed for the crystallization process and drives the transformation of polymorphs A and B′ into D, similar to its role in seeding the A to D crystallization in dry conditions. […] The amount of polymorph D initially added to the sample is very small that it isn't detectable by the DSC with heating rate of 10° C./min. […] The transformation process is speeded up in FIG. 17G (b) by storing the sample in water at 50° C. […] Further work has shown that the A and B′ convert to D in the presence of moisture at lower temperatures also albeit at slower rates."}}, "note": "“And” between values parts separate entries of the source, which are not always exact repeats. Identical values can stand only once. Marks after values point to notes of the source that are not given here.", "data": [{"compound": "C[C@](O)(COc1ccc(C#N)cc1)C(=O)Nc1ccc(C#N)c(C(F)(F)F)c1", "note": "[Form S-1-P4, (S)-N-(4-cyano-3-(trifluoromethyl)phenyl)-3-(4-cyanophenoxy)-2-hydroxy-2-methylpropanamide]", "values": [{"measurement": "maximum water content at 94% r.h.", "setting": "[1]", "value": "r.h.: ~2.4%"}, {"measurement": "water content at 50% r.h.", "setting": "[1]", "value": "water content at 50% r.h.: ~0.8%"}]}, {"compound": "C[C@](O)(COc1ccc(C#N)cc1)C(=O)Nc1ccc(C#N)c(C(F)(F)F)c1", "note": "[Form B′, (S)-N-(4-cyano-3-(trifluoromethyl)phenyl)-3-(4-cyanophenoxy)-2-hydroxy-2-methylpropanamide]", "values": [{"measurement": "Form produced", "setting": "[2]; ethyl acetate + n-heptane 1:2 v/v 81/1.7 mg/ml, stirred 2 h/23° C.", "value": "transformed into solid form A"}, {"measurement": "Form produced", "setting": "[2]; ethyl acetate + n-pentane 1:2 v/v 101/1.0 mg/ml, stirred 22 h/23° C.", "value": "transformed into solid form A"}, {"measurement": "solubility", "setting": "[3]", "value": ">9", "unit": "solid form mg/ml"}, {"measurement": "solubility in water", "setting": "[4]; stated as embodiment", "value": "20 to 30 mg/L and 23 to 27 mg/L"}, {"measurement": "Solid residue", "setting": "[4]; water, 0.5 h", "value": "B′"}, {"measurement": "Solid residue", "setting": "[4]; water, 1.5 h", "value": "B′"}, {"measurement": "Solid residue", "setting": "[4]; water, 4.0 h", "value": "B′"}, {"measurement": "Solid residue", "setting": "[4]; water, 20 h", "value": "B′"}, {"measurement": "pH of the solution", "setting": "[4]; water, 20 h suspension equilibration", "value": "d) pH of the solution: 8.7"}, {"measurement": "solubility", "setting": "[4]; water, suspension equilibration time 0.5 h", "value": "27.4 ± 0.9", "unit": "mg/1000 ml"}, {"measurement": "solubility", "setting": "[4]; water, suspension equilibration time 1.5 h", "value": "27.3 ± 0.8", "unit": "mg/1000 ml"}, {"measurement": "solubility", "setting": "[4]; water, suspension equilibration time 1.5 h, listed as B′", "value": "27.3±0.8", "unit": "mg/1000 ml"}, {"measurement": "solubility", "setting": "[4]; water, suspension equilibration time 4.0 h", "value": "25.6 ± 0.1", "unit": "mg/1000 ml"}, {"measurement": "solubility", "setting": "[4]; water, suspension equilibration time 20 h", "value": "26.7 ± 0.3 ^c) mg/1000 ml"}, {"measurement": "maximum water content at 94% r.h.", "setting": "[1]; listed as solid form B′", "value": "approx. 2.4%"}]}, {"compound": "C[C@](O)(COc1ccc(C#N)cc1)C(=O)Nc1ccc(C#N)c(C(F)(F)F)c1", "note": "[Form S-1, (S)-N-(4-cyano-3-(trifluoromethyl)phenyl)-3-(4-cyanophenoxy)-2-hydroxy-2-methylpropanamide]", "values": [{"measurement": "solubility", "setting": "[5]; toluene, organic solvent or mixture", "value": "< 2000", "unit": "µg/mL"}]}, {"compound": "C[C@](O)(COc1ccc(C#N)cc1)C(=O)Nc1ccc(C#N)c(C(F)(F)F)c1", "note": "[Form B″, (S)-N-(4-cyano-3-(trifluoromethyl)phenyl)-3-(4-cyanophenoxy)-2-hydroxy-2-methylpropanamide]", "values": [{"measurement": "solid form change on heating", "setting": "[6]", "value": "rearrange into D"}]}, {"compound": "C[C@](O)(COc1ccc(C#N)cc1)C(=O)Nc1ccc(C#N)c(C(F)(F)F)c1", "note": "[Form S-1-P1, (S)-N-(4-cyano-3-(trifluoromethyl)phenyl)-3-(4-cyanophenoxy)-2-hydroxy-2-methylpropanamide]", "values": [{"measurement": "maximum water content at 93% r.h.", "setting": "[1]", "value": 1.5, "unit": "%"}, {"measurement": "water content at 50% r.h.", "setting": "[1]", "value": "water content at 50% r.h.: 0.4%"}]}, {"compound": "C[C@](O)(COc1ccc(C#N)cc1)C(=O)Nc1ccc(C#N)c(C(F)(F)F)c1", "note": "[Form S-1-P2, (S)-N-(4-cyano-3-(trifluoromethyl)phenyl)-3-(4-cyanophenoxy)-2-hydroxy-2-methylpropanamide]", "values": [{"measurement": "maximum water content at 95% r.h.", "setting": "[1]", "value": 0.6, "unit": "%"}, {"measurement": "water content at 50% r.h.", "setting": "[1]", "value": "water content at 50% r.h.: 0.3%"}]}, {"compound": "C[C@](O)(COc1ccc(C#N)cc1)C(=O)Nc1ccc(C#N)c(C(F)(F)F)c1", "note": "[Form D, (S)-N-(4-cyano-3-(trifluoromethyl)phenyl)-3-(4-cyanophenoxy)-2-hydroxy-2-methylpropanamide]", "values": [{"measurement": "solid form stability on storage", "setting": "[7]", "value": "stable"}, {"measurement": "solid form stability on storage", "setting": "[7]; listed as Polymorph D", "value": "remains stable"}, {"measurement": "transformation in toluene suspension", "setting": "[5]; sonication of the suspension for 10 minutes", "value": "partial transformation to the toluene solvate"}, {"measurement": "transformation in toluene suspension", "setting": "[5]; suspension (50 mg/mL) in toluene for 4 days, both at ambient temperature and 50° C.", "value": "no noticeable transformation from form D to the toluene solvate"}]}]}
